Key:
Details in all cases: compound at 10 μM
[1] = target: T1, Human δ-opioid (DOP) (Homo sapiens, UniProt P41143); experiment: Radioligand binding, human δ-opioid (DOP) membranes, FlashPlate, [3H]-Bremazocine
T1 construct: purchased Perkin Elmer Biosignal
Procedure: (§1) Cloned receptor membrane preparations from Perkin Elmer Biosignal™ were used in radioligand binding assays.
(§2) A1 Human δ-opioid (DOP), A2 Human κ-Opioid (KOP), A3 Human Melanocortin (MC3), A4 Human Melanocortin (MC4), A5 Human melanocortin (MC5), A6 Human melanin-concentrating hormone (MCH1), A7 Human μ-opioid (MOP), A8 Human neurokinin (NK1), A9 Human neuropeptide Y (NPY-Y1), A10 Human opioid (ORL1) A11 Mouse urotensin (mUR2)
(§3) Screening experiments were performed in either a 50 μl filtration or 25 μl FlashPlate assay format using the following protocol:
(§4) 19.5 μl buffer, 0.5 μl of compound diluted in DMSO, 5 μl of radioligand diluted in binding buffer.
(§5) The day prior to performing the experiment 50 μl DMSO was added to each well of the compound plates to yield compounds at a final concentration of 10 mM. Daughter plates were then created by diluting the compounds further in DMSO to a concentration of 0.5 mM. The mother plates were frozen immediately.
(§6) Immobilize membranes into FlashPlate microplates using PerkinElmer BioSignal's proprietary coating procedure. Dilute radioligand to 5× the final concentration in binding buffer. Add 19.5 μl buffer to each well of the FlashPlate. Add 0.5 μl of DMSO (total value, 5 wells), reference ligand (non-specific value, 3 wells) or compound to the corresponding wells in the FlashPlate microplate. Initiate the reaction by adding 5 μl of radioligand to each well. Apply TopSeal-A onto FlashPlate microplates. Incubate at room temperature for 1 hour in the dark. Count for 30 seconds per well on TopCount Microplate Scintillation and Luminescence Counter (PerkinElmer) using a count delay of 60 seconds.
(§7) Percentage inhibition was calculated using the following formula: [formula]

[2] = target: T2, Mouse urotensin (mUR2) (Mus musculus, UniProt Q8VIH9); experiment: Radioligand binding, mouse urotensin mUR2 membranes, FlashPlate, [125I]-Urotensin II
T2 construct: purchased Perkin Elmer Biosignal
T2 sequence (Q8VIH9 1-385): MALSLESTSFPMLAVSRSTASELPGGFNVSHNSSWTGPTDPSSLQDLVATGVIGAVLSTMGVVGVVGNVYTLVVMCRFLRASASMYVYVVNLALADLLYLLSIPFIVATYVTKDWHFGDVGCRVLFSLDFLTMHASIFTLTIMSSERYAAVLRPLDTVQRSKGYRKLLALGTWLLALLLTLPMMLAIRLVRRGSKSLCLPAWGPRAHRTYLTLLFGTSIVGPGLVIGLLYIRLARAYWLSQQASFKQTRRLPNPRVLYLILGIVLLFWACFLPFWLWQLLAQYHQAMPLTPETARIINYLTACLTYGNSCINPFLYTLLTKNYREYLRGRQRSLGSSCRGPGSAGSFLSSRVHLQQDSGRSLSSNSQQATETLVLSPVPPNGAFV
Procedure: as §1, §2, §3, §4, §5, §6, §7

[3] = target: T3, Human Melanocortin (MC4) (Homo sapiens, UniProt P32245); experiment: Radioligand binding, human melanocortin MC4 membranes, FlashPlate, [125I]-NDP-αMSH
T3 construct: purchased Perkin Elmer Biosignal
Procedure: as §1, §2, §3, §4, §5, §6, §7

[4] = target: T4, Human μ-opioid (MOP) (Homo sapiens, UniProt P35372); experiment: Radioligand binding, human μ-opioid (MOP) membranes, FlashPlate, [3H]-Naloxone
T4 construct: purchased Perkin Elmer Biosignal
Procedure: as §1, §2, §3, §4, §5, §6, §7

[5] = target: T5, Human κ-Opioid (KOP) (Homo sapiens, UniProt P41145); experiment: Radioligand binding, human κ-opioid (KOP) membranes, filtration, [3H]-Diprenorphine
T5 construct: purchased Perkin Elmer Biosignal
Procedure: as §1, §2, §3
(§8) 44 μl membranes diluted in buffer, 1 μl of compound diluted in DMSO, 5 μl of radioligand diluted in binding buffer.
as §5
(§9) Thaw membranes on ice then dilute membranes in binding buffer at a concentration of 1 Unit per well. Dilute radio-ligand to 10 times the final concentration in binding buffer. Add 44 μl of diluted membranes to each well of the deep-well plate. Add 1 μl of DMSO (total value, 5 wells), reference ligand (non-specific value, 3 wells) or compound to the corresponding wells in the deep-well plate. Initiate the reaction by adding 5 μl of radioligand to each well and vortex gently. Incubate at room temperature for 1 hour. During incubation, pre-incubate the Multiscreen Harvest plates in 0.3% PEI. Filter over pre-soaked Multiscreen Harvest plates using a Tomtec Harvester. Wash 9 times with 500 μl of cold 50 mM Tris-HCl pH 7.4 at 4° C. and air-dry for 30 minutes at room temperature under a fume hood. Apply a bottom seal to the Multiscreen Harvest plates. Add 25 μl of MicroScint-0 to each well. Apply TopSeal-A to the plate. Count for 30 seconds per well on TopCount Microplate Scintillation and Luminescence Counter (PerkinElmer) using a count delay of 60 seconds.
as §7

[6] = target: T6, Human Melanocortin (MC3) (Homo sapiens, UniProt P41968); experiment: Radioligand binding, human melanocortin MC3 membranes, FlashPlate, [125I]-NDP-αMSH
T6 construct: purchased Perkin Elmer Biosignal
Procedure: as §1, §2, §3, §4, §5, §6, §7

[7] = target: T7, Human melanocortin (MC5) (Homo sapiens, UniProt P33032); experiment: Radioligand binding, human melanocortin MC5 membranes, FlashPlate, [125I]-NDP-αMSH
T7 construct: purchased Perkin Elmer Biosignal
Procedure: as §1, §2, §3, §4, §5, §6, §7

[8] = target: T8, Human neuropeptide Y (NPY-Y1) (Homo sapiens, UniProt P25929); experiment: Radioligand binding, human neuropeptide Y NPY-Y1 membranes, FlashPlate, [125I]-PYY
T8 construct: purchased Perkin Elmer Biosignal
T8 sequence (P25929 1-384): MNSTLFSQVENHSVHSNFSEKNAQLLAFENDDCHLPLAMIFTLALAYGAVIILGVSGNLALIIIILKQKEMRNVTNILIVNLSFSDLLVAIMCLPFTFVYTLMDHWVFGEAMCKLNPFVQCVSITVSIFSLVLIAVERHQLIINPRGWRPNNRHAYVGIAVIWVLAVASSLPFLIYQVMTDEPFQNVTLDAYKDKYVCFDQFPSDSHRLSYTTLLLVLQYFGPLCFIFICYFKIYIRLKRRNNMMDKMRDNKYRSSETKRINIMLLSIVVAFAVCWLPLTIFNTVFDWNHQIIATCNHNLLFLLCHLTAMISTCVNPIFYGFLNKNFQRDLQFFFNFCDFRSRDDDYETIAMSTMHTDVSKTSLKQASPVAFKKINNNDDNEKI
Procedure: as §1, §2, §3, §4, §5, §6, §7

[9] = target: T9, Human melanin-concentrating hormone (MCH1) (Homo sapiens, UniProt Q99705); experiment: Radioligand binding, human melanin-concentrating hormone MCH1 membranes, FlashPlate, [125I]-S36057
T9 construct: purchased Perkin Elmer Biosignal
Procedure: as §1, §2, §3, §4, §5, §6, §7

[10] = target: T10, Human neurokinin (NK1) (Homo sapiens, UniProt P25103); experiment: Radioligand binding, human neurokinin NK1 membranes, filtration, [125I]-Substance P
T10 construct: purchased Perkin Elmer Biosignal
Procedure: as §1, §2, §3, §8, §5, §9, §7

[11] = target: T11, Human opioid (ORL1) (Homo sapiens, UniProt P41146); experiment: Radioligand binding, human opioid ORL1 membranes, FlashPlate, [125I]-Nociceptin
T11 construct: purchased Perkin Elmer Biosignal
Procedure: as §1, §2, §3, §4, §5, §6, §7

T10 sequence (P25103 whole entry): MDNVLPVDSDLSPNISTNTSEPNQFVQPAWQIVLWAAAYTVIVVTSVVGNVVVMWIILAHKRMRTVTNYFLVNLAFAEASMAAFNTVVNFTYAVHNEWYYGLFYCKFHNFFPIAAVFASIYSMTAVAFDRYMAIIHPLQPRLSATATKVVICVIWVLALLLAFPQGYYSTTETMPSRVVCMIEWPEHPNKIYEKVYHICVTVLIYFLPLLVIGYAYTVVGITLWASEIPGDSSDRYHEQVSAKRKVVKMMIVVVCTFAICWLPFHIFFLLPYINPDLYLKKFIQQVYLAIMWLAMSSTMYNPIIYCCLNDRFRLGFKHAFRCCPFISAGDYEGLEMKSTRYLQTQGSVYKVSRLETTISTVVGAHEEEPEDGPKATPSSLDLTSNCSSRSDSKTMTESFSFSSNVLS
T6 sequence (P41968 whole entry): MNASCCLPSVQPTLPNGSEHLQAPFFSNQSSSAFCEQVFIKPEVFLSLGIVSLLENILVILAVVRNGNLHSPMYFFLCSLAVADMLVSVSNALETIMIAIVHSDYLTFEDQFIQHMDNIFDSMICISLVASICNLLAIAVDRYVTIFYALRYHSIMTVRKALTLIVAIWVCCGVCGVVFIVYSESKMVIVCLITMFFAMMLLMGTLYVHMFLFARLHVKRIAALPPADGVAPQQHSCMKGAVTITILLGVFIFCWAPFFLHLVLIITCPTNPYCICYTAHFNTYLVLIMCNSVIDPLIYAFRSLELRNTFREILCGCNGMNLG
T4 sequence (P35372 whole entry): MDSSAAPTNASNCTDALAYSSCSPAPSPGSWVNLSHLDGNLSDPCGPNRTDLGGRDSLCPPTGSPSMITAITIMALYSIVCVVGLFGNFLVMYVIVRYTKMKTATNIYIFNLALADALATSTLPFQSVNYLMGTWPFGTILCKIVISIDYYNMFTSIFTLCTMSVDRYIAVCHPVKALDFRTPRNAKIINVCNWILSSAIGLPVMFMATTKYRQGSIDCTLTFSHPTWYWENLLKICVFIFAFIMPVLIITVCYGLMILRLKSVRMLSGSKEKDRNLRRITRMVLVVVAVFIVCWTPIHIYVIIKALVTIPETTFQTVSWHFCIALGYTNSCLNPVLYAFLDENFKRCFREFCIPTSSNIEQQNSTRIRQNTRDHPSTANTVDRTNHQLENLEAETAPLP
T5 sequence (P41145 whole entry): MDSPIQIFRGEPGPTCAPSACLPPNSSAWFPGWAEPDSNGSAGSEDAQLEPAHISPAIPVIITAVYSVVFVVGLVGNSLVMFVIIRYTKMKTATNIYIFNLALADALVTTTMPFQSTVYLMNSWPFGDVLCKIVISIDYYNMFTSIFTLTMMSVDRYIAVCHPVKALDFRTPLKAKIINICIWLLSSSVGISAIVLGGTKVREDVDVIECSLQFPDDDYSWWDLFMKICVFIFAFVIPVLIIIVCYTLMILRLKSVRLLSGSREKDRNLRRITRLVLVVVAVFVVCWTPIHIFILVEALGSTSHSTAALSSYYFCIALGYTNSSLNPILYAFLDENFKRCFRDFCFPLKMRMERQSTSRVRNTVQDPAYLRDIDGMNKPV
T3 sequence (P32245 whole entry): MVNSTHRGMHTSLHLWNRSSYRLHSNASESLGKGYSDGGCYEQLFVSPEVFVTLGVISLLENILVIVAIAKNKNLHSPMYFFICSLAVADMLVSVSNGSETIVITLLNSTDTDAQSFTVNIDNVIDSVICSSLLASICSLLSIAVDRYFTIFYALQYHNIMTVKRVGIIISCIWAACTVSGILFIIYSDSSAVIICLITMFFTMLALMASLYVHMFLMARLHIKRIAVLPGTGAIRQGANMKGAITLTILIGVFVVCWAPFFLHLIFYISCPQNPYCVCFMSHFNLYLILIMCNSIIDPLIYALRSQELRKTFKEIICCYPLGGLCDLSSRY
T1 sequence (P41143 whole entry): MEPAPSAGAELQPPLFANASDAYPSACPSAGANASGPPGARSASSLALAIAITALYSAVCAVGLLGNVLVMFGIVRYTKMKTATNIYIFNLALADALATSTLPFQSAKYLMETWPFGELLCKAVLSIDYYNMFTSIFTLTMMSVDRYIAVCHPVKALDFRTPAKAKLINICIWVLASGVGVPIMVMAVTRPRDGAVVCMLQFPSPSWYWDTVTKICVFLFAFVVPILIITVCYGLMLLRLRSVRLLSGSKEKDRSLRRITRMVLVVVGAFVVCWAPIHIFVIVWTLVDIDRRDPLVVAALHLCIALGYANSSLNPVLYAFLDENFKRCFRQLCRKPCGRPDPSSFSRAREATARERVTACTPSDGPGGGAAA
T11 sequence (P41146 whole entry): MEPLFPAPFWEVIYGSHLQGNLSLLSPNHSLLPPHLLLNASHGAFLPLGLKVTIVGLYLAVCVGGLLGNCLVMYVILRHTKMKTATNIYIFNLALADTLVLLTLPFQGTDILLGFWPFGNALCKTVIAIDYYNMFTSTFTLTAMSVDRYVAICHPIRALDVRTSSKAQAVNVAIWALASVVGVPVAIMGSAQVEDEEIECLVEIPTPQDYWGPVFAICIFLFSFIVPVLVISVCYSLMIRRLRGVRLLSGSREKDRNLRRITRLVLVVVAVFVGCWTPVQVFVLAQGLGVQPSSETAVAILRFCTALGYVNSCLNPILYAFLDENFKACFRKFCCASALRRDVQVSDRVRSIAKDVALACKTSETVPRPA
T9 sequence (Q99705 whole entry): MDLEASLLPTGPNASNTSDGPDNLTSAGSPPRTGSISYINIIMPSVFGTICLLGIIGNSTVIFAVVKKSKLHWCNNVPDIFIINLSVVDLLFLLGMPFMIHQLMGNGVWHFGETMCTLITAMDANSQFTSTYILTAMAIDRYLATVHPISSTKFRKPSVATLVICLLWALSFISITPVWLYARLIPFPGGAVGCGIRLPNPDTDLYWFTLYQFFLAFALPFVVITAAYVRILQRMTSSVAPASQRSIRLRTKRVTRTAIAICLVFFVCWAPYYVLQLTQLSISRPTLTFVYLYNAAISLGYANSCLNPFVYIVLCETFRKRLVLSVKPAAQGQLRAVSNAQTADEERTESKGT
T7 sequence (P33032 whole entry): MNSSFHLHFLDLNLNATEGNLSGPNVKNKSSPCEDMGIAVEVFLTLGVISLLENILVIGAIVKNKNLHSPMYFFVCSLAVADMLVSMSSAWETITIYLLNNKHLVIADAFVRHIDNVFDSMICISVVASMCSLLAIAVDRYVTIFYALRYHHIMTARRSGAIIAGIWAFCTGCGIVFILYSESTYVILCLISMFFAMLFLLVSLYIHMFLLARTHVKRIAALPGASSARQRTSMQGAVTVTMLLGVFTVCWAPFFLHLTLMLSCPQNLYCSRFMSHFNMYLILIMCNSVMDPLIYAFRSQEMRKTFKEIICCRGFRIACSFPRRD

NCC1CCC(C(=O)NC2O[C@H](CO)[C@@H](O)[C@H](OCc3ccc(Cl)cc3)[C@H]2NC(=O)c2ccccc2)CC1 (stereo partly shown) [compound 361]
A1: inhibition of radioligand binding, human δ-opioid (DOP) ([1]; [3H]-Bremazocine): − (“−” indicates less than 50% inhibition at 10 μM) | A11: inhibition of radioligand binding, mouse urotensin (mUR2) ([2]; [125I]-Urotensin II): − (“−” indicates less than 50% inhibition at 10 μM) | A4: inhibition of radioligand binding, human melanocortin (MC4) ([3]; [125I]-NDP-αMSH): + (“+” indicates greater than 50% inhibition at 10 μM) | A7: inhibition of radioligand binding, human μ-opioid (MOP) ([4]; [3H]-Naloxone): − (“−” indicates less than 50% inhibition at 10 μM) | A2: inhibition of radioligand binding, human κ-opioid (KOP) ([5]; [3H]-Diprenorphine): − (“−” indicates less than 50% inhibition at 10 μM) | A3: inhibition of radioligand binding, human melanocortin (MC3) ([6]; [125I]-NDP-αMSH): − (“−” indicates less than 50% inhibition at 10 μM) | A5: inhibition of radioligand binding, human melanocortin (MC5) ([7]; [125I]-NDP-αMSH): − (“−” indicates less than 50% inhibition at 10 μM) | A9: inhibition of radioligand binding, human neuropeptide Y (NPY-Y1) ([8]; [125I]-PYY): − (“−” indicates less than 50% inhibition at 10 μM) | A6: inhibition of radioligand binding, human melanin-concentrating hormone (MCH1) ([9]; [125I]-S36057): − (“−” indicates less than 50% inhibition at 10 μM) | A8: inhibition of radioligand binding, human neurokinin (NK1) ([10]; [125I]-Substance P): − (“−” indicates less than 50% inhibition at 10 μM) | A10: inhibition of radioligand binding, human opioid (ORL1) ([11]; [125I]-Nociceptin): − (“−” indicates less than 50% inhibition at 10 μM)

CO[C@H]1[C@H](O)[C@@H](COCc2ccc3ccccc3c2)OC(OCc2ccccc2)[C@@H]1NC(=O)CCCNC(=N)N (stereo partly shown) [compound 89]
A1 radioligand binding inhibition ([1]; human δ-opioid (DOP) membranes): − (“−” indicates less than 50% inhibition at 10 μM) | A11 radioligand binding inhibition ([2]; mouse urotensin mUR2 membranes): − (“−” indicates less than 50% inhibition at 10 μM) | A4 radioligand binding inhibition ([3]; human melanocortin MC4 membranes): − (“−” indicates less than 50% inhibition at 10 μM) | A7 radioligand binding inhibition ([4]; human μ-opioid (MOP) membranes): + (“+” indicates greater than 50% inhibition at 10 μM) | A2 radioligand binding inhibition ([5]; human κ-opioid (KOP) membranes): − (“−” indicates less than 50% inhibition at 10 μM) | A3 radioligand binding inhibition ([6]; human melanocortin MC3 membranes): − (“−” indicates less than 50% inhibition at 10 μM) | A5 radioligand binding inhibition ([7]; human melanocortin MC5 membranes): − (“−” indicates less than 50% inhibition at 10 μM) | A9 radioligand binding inhibition ([8]; human NPY-Y1 membranes): − (“−” indicates less than 50% inhibition at 10 μM) | A6 radioligand binding inhibition ([9]; human MCH1 membranes): − (“−” indicates less than 50% inhibition at 10 μM) | A8 radioligand binding inhibition ([10]; human neurokinin NK1 membranes): + (“+” indicates greater than 50% inhibition at 10 μM) | A10 radioligand binding inhibition ([11]; human ORL1 membranes): − (“−” indicates less than 50% inhibition at 10 μM)

Source: patent US20080009418A1, “Selective Inhibitors” (Alchemia LTD., priority 2004, published 2008)
